Source: patent US20210353749A1, “GUANABENZ AS AN ADJUVANT FOR IMMUNOTHERAPY” (UNIVERSITÉ CATHOLIQUE DE LOUVAIN, priority 2018, published 2021)

Legend:
TiRP tumor [1] = test: TiRP melanoma model with adoptive cell transfer of activated P1A-specific CD8+ T cells; assay type: in vivo, mouse
From the text: TiRP mice: TiRP mice have been created by crossing Ink4a/Arf^flox/flox mice with mice carrying a transgenic construct controlled by the tyrosinase promoter and driving the expression of H-Ras^12V and Trap1a which encodes a MAGE-type tumor antigen P1A; the promoter is separated from the coding region by a stop cassette made of a floxed self-deleting CreER (Huijbers et al., 2006, Cancer Res 66, 3278-3286). Those mice were backcrossed to a B10.D2 background and bred to homozygosity. TCRP1A mice heterozygous for the H-2Ld/P1A35-43-specific TCR transgene were kept on the B10.D2; Rag1^−/− background (Shanker et al., 2004, J Immunol 172, 5069-5077). All mice used in this study were produced under specific pathogen free (SPF) conditions at the animal facility of the Ludwig Institute for Cancer Research. All the rules concerning animal welfare have been respected according to the 2010/63/EU Directive. All procedures were performed with the approval of the local Animal Ethical Committee, with reference 2015/UCL/MD/15.
A fresh solution of 40H-Tamoxifen was prepared by dissolving 40H-Tamoxifen (Imaginechem) in 100% ethanol and mineral oil (ratio 1:9) followed by 30-min sonication, and injected subcutaneously (2 mg/200 μL per mouse) in the neck area of gender-matched 7 weeks old TiRP mice. Tumor appearance was monitored daily and tumors were measured three times/week. Tumor volume (in mm^3) was calculated by the following formula: Volume=width^2×length/2. Tumor-bearing TiRP mice were randomized based on the tumor size when average volume was 400 mm^3, 500 mm^3 or 1000 mm^3 as indicated.
T cells were incubated with guanabenz (10, 20, or 40 μM) for 16 h to 24 h as indicated. Mice received a daily intra-peritoneal injection of guanabenz (5 mg/kg) or vehicle (PBS) from the day of randomization (and the day of ACT when applicable) until the day of sacrifice.
For the adoptive cell transfer (ACT), P1A-specific (TCRP1A) CD8^+ T cells were isolated from spleens and lymph nodes of TCRP1A mice as described hereinabove, and stimulated in vitro by co-culture with irradiated (10.000 rads) L1210-P1A-B7.1 cells (Gajewski et al., 1995, J Immunol 154, 5637-5648) at 1:2 ratio (0.5×10^5 CD8^+ T cells and 10^5 L1210-P1A-B7.1 cells per well in 48-well plates) in IMDM (GIBCO) containing 10% fetal bovine serum supplemented with L-arginine (0.55 mM, Merck), L-asparagine (0.24 mM, Merck), glutamine (1.5 mM, Merck), betamercaptoethanol (50 μM, Sigma), 50 UmL^−1 penicillin and […] (Life Technologies). Four days later, TCRP1A CD8^+ T cells were purified on a Lymphoprep gradient (StemCell) and 10^7 living cells were injected intravenously in 200 μL PBS in TiRP-tumor bearing mice on the day of randomization.
Mice received a daily intra-peritoneal injection of alprenolol (5 mg/kg) or vehicle (PBS) from the day of ACT until the day of sacrifice.
T cells were incubated with sunitinib (0.1, 0.3, 0.8, 2.5 or 4 μM) for 16 h as indicated. Mice received a daily dose of sunitinib (20 mg/kg) or vehicle (PBS) by oral gavage from the day of ACT until the day of sacrifice.

[2] = tested on: Mouse TCRP1A CD8+ T cells; test: IFNγ secretion assay (ELISA), mouse T cells; assay type: cell-based; settings: guanabenz 10, 20 or 40 μM, 16 h to 24 h, co-culture with L1210-P1A-B7.1 target cells; FIG. 1B
Protocol: Mouse TCRP1A CD8^+ T cells: P1A-specific (TCRP1A) CD8^+ T cells were isolated from spleens and lymph nodes of TCRP1A mice using anti-mouse CD8a (Ly-2) MicroBeads (Miltenyi Biotec). IFNγ secretion assay: CD8^+ T cells were plated at 50,000 cells per well in a 96 U plate with different concentration of guanabenz in full medium supplemented with IL2 and incubated at 37° C. overnight prior to their use in the assay on the next day. On the day of the assay, the culture supernatant was removed from the cells and the cells were washed once with complete medium to remove the drug completely. The target cells L1210-P1A-B7.1 or T2 cells loaded with WT1126-134 peptide were added to the wells at a ratio of 1:1. Control wells containing either only T cells or […] were also included for each plate. The plate was then incubated at 37° C. overnight. At the end of the incubation period the supernatant was collected and the amount of IFNγ was measured by ELISA according to manufacturer's instruction (R&D). T cells were incubated with guanabenz (10, 20, or 40 μM) for 16 h to 24 h as indicated. Mice received a daily intra-peritoneal injection of guanabenz (5 mg/kg) or vehicle (PBS) from the day of randomization (and the day of ACT when applicable) until the day of sacrifice.

TiRP tumor [3] = test: TiRP melanoma model with adoptive cell transfer of naïve P1A-specific CD8+ T cells; assay type: in vivo, mouse; settings: guanabenz 5 mg/kg i.p. daily with ACT of 2 million naïve T cells, 4 days after the ACT, vs control; FIG. 6
Protocol: FIG. 6 is a histogram showing the tumor infiltration of P1A-specific CD8^+ T cells evaluated 4 days after ACT of naïve TCRP1A CD8^+ T cells by FACS in mice that received guanabenz (5 mg/kg, i.p.) or vehicle (PBS, i.p.). In the preceding experiments, before being transferred to TiRP-tumor bearing mice, the P1A-specific CD8^+ T were pre-activated in vitro by co-culture with irradiated L1210-P1A-B7.1 cells as described hereinabove. […] TiRP-tumor bearing mice were administered an adoptive cell transfer (ACT) of 2 million of naïve P1A-specific CD8^+ T cells and daily injections of guanabenz from the day of the ACT. […] Thus, when the mice were administered guanabenz, the transferred naïve CD8^+ T cells were properly primed and populated the tumor.

With NC(N)=N/N=C/c1c(Cl)cccc1Cl [guanabenz, 2-[(E)-(2,6-dichlorophenyl)methylideneamino]guanidine] the tumor growth (TiRP tumor [1]; guanabenz 5 mg/kg i.p. daily with ACT of 10 million activated T cells, day 0 to day 18, vs ACT alone, FIG. 5A) was “significantly decreased”, the “tumor infiltration of CD8+ T cells (P1A tetramer+ CD8+ T cells among total living cells and among total CD8+ T cells)” value (TiRP tumor [1]; guanabenz 5 mg/kg i.p. daily with ACT, 10 days after ACT, FIG. 5C-D) was “increased” and the “apoptosis of the adoptively transferred CD8+ T cells” value (TiRP tumor [1]; guanabenz 5 mg/kg i.p. daily with ACT, 10 days after ACT, FIG. 5E) was “reduced”. The “percentage of CD69+ P1A-specific CD8+ T cells (T cell activation marker)” value (TiRP tumor [1]; guanabenz 5 mg/kg i.p. daily with ACT, 10 days after ACT, FIG. 5F) was “increased percentage”, the “tumor weight on the day of sacrifice” value (TiRP tumor [1]; guanabenz 5 mg/kg i.p. daily with ACT, day 18, vs ACT alone, FIG. 5B) was “significantly decreased” and the “secretion of IFNγ (ELISA)” value [2] was “increased”. For the same compound, the “tumor infiltration of P1A-specific CD8+ T cells” value (TiRP tumor [3]) was “significantly increased”.
